Results published in patent US9913916B2, “Asymmetric bifunctional silyl monomers and particles thereof as prodrugs and delivery vehicles for pharmaceutical, chemical and biological agents” (The University of North Carolina at Chapel Hill, priority 2010, dated 2018).

Assay type: physicochemical
Description: A model degradation of an ABS pro-drug of gemcitabine attached via a di-isopropyl silyl ether linkage (iPr-GEM) was conducted.
Asymmetric bifunctional silyl ether pro-drugs were synthesized and analyzed as potential materials for controlled drug delivery in nanoparticles. Using one-step synthesis, numerous pro-drugs from the chemotherapeutics camptothecin, dasatinib, and gemcitabine were prepared. These ABS pro-drugs were placed under acidic conditions, such as those found […], and subsequent to degradation of the reversible covalent linkage(s), the pro-drug reverted back to the original active form of the chemotherapeutic. […] The rate of release increased as the steric bulk of the substituent on the Si atom decreased; Rate of Release: Et-GEM>iPr-GEM>>tBu-GEM). […] These ABS pro-drugs can be incorporated into nanoparticles and medical devices capable of releasing drugs in a controlled and tunable fashion.

| Structure (SMILES) | degradation of silyl ether linkage on exposure to acid |
| --- | --- |
| C=CC(=O)OCCO[Si](CC)(CC)O[C@]1(CC)C(=O)OCc2c1cc1n(c2=O)Cc2cc3ccccc3nc2-1 [Et-CPT, Diethyl ABS of Camptothecin] | degraded to yield both unmodified camptothecin and HEA |
| C=CC(=O)OCCO[Si](OC[C@H]1O[C@@H](n2ccc(N)nc2=O)C(F)(F)[C@@H]1O)(C(C)C)C(C)C [iPr-GEM, Diisopropyl ABS of Gemcitabine] | acid sensitive and reverts back to the original starting materials |
